Test [1] relates to NLRP3 inflammasome. In words: NLRP3 inflammasome in J774A.1 cells with MAPK agonist Anisomycin. The test is classed as cell-based. To be noted: MAPK signaling pathway agonist Anisomycin added, FIG. 9. The source says: (§1) When animal tissues were used to prepare protein samples, the tissues were firstly homogenized and lysed in the RIPA lysis buffer. The subsequent steps were the same as those for preparing protein samples from cells. When cell supernatants were used to prepare protein samples, the supernatants were freeze-dried, needed to be extracted using a protein recovery kit (Applygen, Beijing, China), and then analyzed by western-blot.
After that, the MAPK signaling pathway agonist Anisomycin and TR3 were added into J774A-1 cells.

Test [2] concerns NLRP3 inflammasome. Put plainly: Western-blot of NLRP3 inflammasome proteins in liver of ApoE−/− mouse and J774A1 cells. The class given is in vivo, mice. On the procedure: 6-week-old male C57/BL6 ApoE^−/− mice were fed on normal chaw diet for one week. The mice were randomly divided into three groups (control group, high-fat diet model group, and treatment group, 12 mice per group) according to the body weight. From 7-week-old, the high-fat diet model group and the treatment group were fed on a high fat diet (HFD) (0.15% cholesterol and 20% fat), and the control group was fed on normal chow diet. The treatment group (R3) mice were administered intragastrically with TR3 (5 mg/kg). The control group and the high-fat diet model group mice were intragastrically administered with sodium carboxymethylcellulose (CMC-Na) solution. After 12 weeks of administration, all mice were fasted overnight. The blood sample was taken from the retro-orbital plexus, collected in a EP tube, and then centrifuged for 15 min (2500 rpm). The centrifuged serum (upper layer) was transferred to new EP tubes (divided into two aliquots) and stored at −20° C. for further use. The mice were fixed, and the skin was cut open along the midline of the abdomen to the neck. The abdominal cavity was cut open to collect the fresh liver tissue. The Liver tissue was put into 3 freezing tubes, and then immediately put into liquid nitrogen for subsequent detection of liver lipid detection and extraction of RNA and protein. The thorax was cut open to expose the heart. The heart was perfused with 10 ml PBS, and then fixed by perfusion with 4% paraformaldehyde solution until the liver turned white. The fixed liver was taken out and placed in a six-well plate containing 4% paraformaldehyde solution for further fixation. The full-length aorta (from the ascending aorta to the common iliac arteries) was isolated and placed in a six-well plate containing 4% paraformaldehyde solution. The aorta was fixed in 4% paraformaldehyde solution overnight and then stored in 20% sucrose solution at 4° C.
as §1
The western-blot was used to detect the effects of TR3 on the activation of NLRP3 inflammasome and other related proteins in the liver of ApoE^−/− mouse and J774A1 cells.

For test [3], the system named is AMPK. Put plainly: AMPK level in RAW 264.7 cells by western-blot. The test is classed as cell-based, Murine. As to conditions: 1 μM, 18-24 h treatment, FIG. 11. As to the method:
Murine macrophages RAW 264.7 cells were subcultured about every 48 h. When the cells were approximately 100% confluent, the old culture medium was removed, and the cells were washed with PBS and digested with trypsin at an appropriate amount for about 2 min at RT. After the digestion solution was removed, the RPMI-1640 complete medium containing 10% FBS was added immediately to inhibit the activity of trypsin. The cells in the culture flask were repeatedly and gently blown with a curved straw, so that they were completely detached from the bottom of the flask and dispersed into the single-cell suspension. The cells were seeded into a new cell flask at a density of 1:4-1:6, and added with an appropriate amount of the complete medium. The flask was placed in an incubator and cultured at 37° C., 5% CO2. RAW264.7 cells were pretreated with si-AMPK (AMPK siRNA) for 24 h, and then treated with compound TR3 (1 μM) for 24 h. The expression of ABCA1 and AMPK was detected by western-blot.
The effect of TR3 on AMPK was detected by western-blot.

The test system of test [4] is SR-BI. In words: SR-BI up-regulation, luciferase reporter in SR-BI-LUC HepG2 cells. The class given is cell-based. As to conditions: Homo sapiens, 18 h, maximum up-regulation of luciferase activity versus DMSO, read-out: SR-BI max. On the procedure:
Experiments were conducted to detect whether the compounds of the disclosure can pharmacologically up-regulate the expression of ABCA1 and SR-BI. Firstly, ABCA1P-LUC HepG2 cells or SR-BI-LUC HepG2 cells in logarithmic growth phase were digested, diluted in cell culture medium, and counted. Cells were seeded into 96-well plates at a density of 5×10^5/ml (100 μL of the single-cell suspension per well). After cells fully adhered (about 6 h), the medium containing 10% FBS was removed, and the cells were gently washed with PBS. Serum free MEM-EBSS medium (200 μL per test well) and 2 μL of the compounds to be tested (at a final concentration of 10 μg/mL) were added to each test well, and meanwhile, DMSO at a corresponding concentration was added to the control well. After 18-24 h, the medium was removed. Cell Luciferase activity was measured by a method as described in the Luciferase Assay System. By optimizing the final concentration of DMSO, the treatment time of the compounds on the cells and the number of cells seeded into each well during the screening, the final screening conditions were determined as follows: each well is seeded with 5×10^4 cells, DMSO is added at a final concentration of 1%, and the sample is treated for 18 h.
The ratio of change of luciferase activity is calculated with the following formula: Ratio of change (%)=A/B×100;
wherein A is the luciferase activity (RLU) measured after the compound to be tested is added, and B is the luciferase activity (RLU) measured after the blank control (DMSO) is added. The luciferase activity of cells in each well was measured, and the dose-effect relationship between the concentration of the compound and the ratio of change of the luciferase activity was determined to calculate the EC50.
(In general: A reporter such as luciferase makes a cellular process visible.)

The mark [5] stands for this setting: liver of ApoE−/− mouse and J774A1 cells, western-blot, FIG. 6.

The structures appear in SMILES notation.

With `c1ccc2c(c1)CN1CCc3c([nH]c4ccccc34)C1=N2` [TR3, 5,7,8,13-tetrahydroindolo[2′,3′:3,4]pyrido[2,1-b]quinazoline], in test [1], the “inhibitory effect on NLRP3, Caspase-1 and IL-1β with Anisomycin added” value was “reduced”. In addition, the “activation of NLRP3 inflammasome in the liver” value in test [2] (liver of ApoE−/− mice) is recorded as “significantly inhibited”. In test [2] (setting [5]), the “expression of Caspase-1 protein” value is listed as “significantly inhibited”, the “expression of IL-1β protein” value is “significantly inhibited” and the “expression of NLRP3 protein” value is “significantly inhibited”. Also, the AMPK level result in test [3] is reported as “significantly up-regulated”. Also, the maximal fold induction in test [4] worked out at 2.07.
